As usually defined, the MIC50 is an inhibitory concentration at the 50% level, which refers to growth in some studies and to a panel of isolates in others. What is called MIC90 is an inhibitory concentration at the 90% level, which refers to growth in some studies and to a panel of isolates in others. What is called MIC is the smallest concentration in the dilution series that meets the test's criterion for growth inhibition. A lower MIC goes with inhibition by little substance.

A value given as a limit tells only on which side of the number the result lay.

The values below come from US12697325B2 (TENNOR THERAPEUTICS (SUZHOU) LIMITED, priority 2021, dated 2026).

In data set [1] the test system is Acinetobacter baumannii strains. The data set can be described thus: Minimum inhibitory concentration (CLSI M07), Example 2, 20 strains. In kind it is cell-based. As to conditions: for MIC of the strain BAA-1795 (component in the combination): sulbactam/avibactam 4:1, concentration of the named component. The protocol: (§1) The minimum inhibitory concentration (MIC) was determined in accordance with the requirements of the Clinical and Laboratory Standards Institute (CLSI) M07 (for aerobic bacteria).
3.1 The compounds were diluted with DMSO up to 100 times of the highest concentration tested.
The steps of manual dilution are as follows (example): firstly, the compound or antibiotic was diluted to 100 times of the maximum final concentration tested, then 60 μL of compound mother liquor was added to the first column of the 96-well plate, and 30 μL of DMSO was added to each well in the second to the 12th column; 30 μL of the liquid was transferred from the first column to the second column. After being pipetted up and down to even, 30 μL was transferred to the third column, and was diluted in sequence at a 2-fold gradient for a total of 10 times; then 30 μL was removed from each well in the 11th column, then a compound solution diluted at 2-fold gradient was obtained and 1 μL was transferred to a 96-well test plate.
Aerobic bacteria: the strains were inoculated on MHA one day in advance and incubated overnight at 37° C. On the day of the assay, 5-6 single colonies were picked and suspended evenly in saline, and the bacterial concentration was adjusted to the turbidity of 0.5 McFarland standard (concentration is about 1×10^8 CFU/mL). The bacterial suspension was diluted at 200-fold with the corresponding liquid culture medium (Table 1), i.e., the bacterial concentration was ~5×10^5 CFU/ml, and then 100 μL of the liquid was transferred to a 96-well round bottom plate (the 96-well plate with compound prepared in 4.2, Echo method) to obtain the test plate. If the compound was manually diluted, then 99 μL of the solution was transferred into a 96-well round bottom plate. The 96-well round bottom plate obtained above was placed into an incubator at 37° C. and 85% humidity to incubate for 20 h.

The conditions of data set [2]: cited from earlier work.
For data set [3] the following is noted: 2 g, q8 h via infusion for 3 h; cited from earlier work.
Data set [4] concerns clinical strains of Acinetobacter baumannii. The data set can be described thus: Minimum inhibitory concentration (CLSI M07), Example 1, clinical strains. It is filed as cell-based. Particulars: combination MIC = sum of the concentrations of the two compounds. How it is done:
as §1
3.1 The compounds were diluted with water up to 100 times of the highest concentration tested.
The dilution steps are as follows: first dilute the compounds or antibiotics to 100 times of the highest final concentration tested, and then:
A 50 μL of sterile water and 50 μL of avibactam sodium mother liquid were added into the A row of the second 96-well plate, and 50 μL of water was added into each of the remaining wells. A 50 μL of liquid was pipetted from the A row and added into the B row; after being pipetted up and down to even, 50 μL of the solution was pipetted and added to the C row, and diluted in a 2-fold gradient in turn for a total of 6 times and then, 50 μL was removed from each well of the G row to obtain the compound solution diluted to a 2-fold gradient and then 4 μL was transferred to a 96-well test plate.
Aerobic bacteria: the strains were inoculated on MHA one day in advance and incubated overnight at 37° C. On the day of the assay, 5-6 single colonies were picked and suspended evenly in saline, and the bacterial concentration was adjusted to the turbidity of 0.5 McFarland standard (concentration is about 1×10^8 CFU/mL). The bacterial suspension was diluted 200 times with the corresponding liquid culture medium (Table 1), i.e., at a bacterial concentration of ~5×10^5 CFU/ml, then 192 μL was transferred to a 96-well round bottom plate to obtain the test plate. Then, the 96-well round bottom plate obtained above was placed into an incubator at 37° C. and 85% humidity to incubate for 20 h.

Data set [5] is described as follows: Pharmacokinetics in plasma and bronchoalveolar lavage fluid of female CD-1 mice. Particulars: mouse, in vivo. It is filed as in vivo. How it is done:
An appropriate amount of the test drug was accurately weighed and mixed with the appropriate volume of vehicle (5% DMSO+0.5% Tween 80 in normal saline) to obtain a clear solution for the test in Table 9. The formulation solution for injection was prepared to sterile filtration through a 0.22 μm filter prior to administration. The mice were dosed with the drug within 30 min after the formulated solution for injection was prepared. A 1.5 mL of the formulation solution for injection was transferred into a polypropylene microcentrifuge tube for dose verification by LC/UV or LC-MS/MS.
All blood samples were transferred to pre-frozen EDTA-K2 tubes and placed on wet ice until centrifugation. […]
Plasma: approximately 100 μL of blood sample was transferred into pre-cooled commercial EDTA-K2 tubes and placed on wet ice until centrifugation. After the blood samples were centrifuged at approximately 4° C. and 3, 200 g for 10 min, plasma was collected and transferred to pre-labeled 96-well plates or polypropylene tubes, flash frozen on dry ice, and stored at ≤−60° C. until the analysis by LC-MS/MS.
Serum: approximately 100 μL of blood sample was transferred into a tube without anticoagulant and placed on wet ice for approximately 30 min and centrifuged at 4° C. and 3,000 g for 10 min, and the serum was collected and transferred into pre-labeled PP tubes placed on wet ice. After the completion of all the collections, serum samples were stored at −60° C. until being sent to the animal experimental team to determine urea concentration.
Bronchoalveolar lavage fluid (BALF): pre-cooled tracheo-alveolar lavage fluid was injected into the trachea or predefined bronchi. After a full expansion of the lung tissue, the lavage fluid was slowly drawn out with a syringe 30 s later. The lung was lavaged three times. During the last lavage, the lung tissue was gently squeezed to restore the fluid. To prevent contamination of other lung tissues, the corresponding bronchi were ligated. Both lungs of the mice were perfused with 0.8 mL.
[…] Approximately 200 μL of the BALF samples were transferred into a polypropylene tube, rapidly frozen on dry ice, maintained at ≤−60° C., and sent to the animal experimental team to determine urea concentration. The remaining BALF samples (approximately 600 μL) were rapidly frozen on dry ice and maintained at ≤−60° C. until being submitted for drug concentration analysis by LC-MS/MS.

Regarding `CC1(C)[C@H](C(=O)O)N2C(=O)C[C@H]2S1(=O)=O` [Sulbactam, (2S, 5R)-3,3-dimethyl-7-oxo-4-thia-1-azabicyclo [3.2.0] heptane-2-carboxylic acid 4,4-dioxide], the “MIC of the strain BAA-1795 (component in the combination)” value in data set [1] amounted to 8 µg/mL. Also, the “MIC90 of the single component in the combination” value in data set [1] (sulbactam sodium:avibactam sodium = 4:1, concentration of the named component) came to 16 µg/mL. Besides, the “MIC50 of the single component in the combination” value in data set [1] (sulbactam sodium:avibactam sodium = 4:1, concentration of the named component, Examples 1 and 2) came to 8 µg/mL. Also, in data set [2], the Protein binding result is “approximately 5.2%”. In addition, in data set [3], the “Part of the dosing interval with plasma concentration above 2 μg/mL” value is listed as 44% and the “Part of the dosing interval with plasma concentration above 4 μg/mL” value was 19%.

As to `NC(=O)[C@@H]1CC[C@@H]2CN1C(=O)N2OS(=O)(=O)[O-].[Na+]` [Avibactam sodium, avibactam sodium], the MIC50 in data set [1] (Example 2, 20 strains) is greater than 128 µg/mL; in data set [4], greater than 32 µg/mL. Besides, the MIC90 was greater than 128 µg/mL in data set [1] (Example 2, 20 strains) and greater than 32 µg/mL in data set [4]. For the same compound, the MIC range was greater than 128 µg/mL in data set [1] (Example 2, 20 strains) and greater than 32 µg/mL in data set [4]. Moreover, the minimal inhibitory concentration (MIC) in data set [1] (strain ARLG-1791), in data set [1] (strain ARLG-1809), in data set [1] (strain ARLG-1852), in data set [1] (strain ARLG-1853), in data set [1] (strain ARLG-1881) and in data set [1] (strain ATCC 17978) was greater than 128 µg/mL each time. Further, the MIC in data set [1] (strain ATCC 19606), in data set [1] (strain ATCC-BAA-1605), in data set [1] (strain ATCC-BAA-1789), in data set [1] (strain ATCC-BAA-1790), in data set [1] (strain ATCC-BAA-1791) and in data set [1] (strain ATCC-BAA-1792) was greater than 128 µg/mL each time. Moreover, the MIC in data set [1] (strain ATCC-BAA-1793), in data set [1] (strain ATCC-BAA-1794), in data set [1] (strain ATCC-BAA-1795), in data set [1] (strain ATCC-BAA-1796), in data set [1] (strain ATCC-BAA-1797) and in data set [1] (strain ATCC-BAA-1798) was greater than 128 µg/mL in each case. The minimum inhibitory concentration (MIC) in data set [1] (strain ATCC-BAA-1799) and in data set [1] (strain ATCC-BAA-1800) was greater than 128 µg/mL each time. Also, in data set [1], the “MIC of the strain BAA-1795 (component in the combination)” value was 2 µg/mL. The “AUC Ratio” value in data set [5] worked out at 0.0257. Besides, the “Part of the dosing interval with free plasma concentration above the MIC of strain BAA-1795” value in data set [5] is given as “more than 50%”. Also, the “Part of the dosing interval with plasma concentration above the MIC of strain BAA-1795” value in data set [5] was “more than 50%”. For the same compound, in data set [5] (iv, 150 mg/kg), the “AUC0-last, BALF” value was determined as 1319 ng·h/mL. Besides, the “AUC0-last, plasma” value in data set [5] (iv, 150 mg/kg) was determined as 51289 ng·h/mL. Moreover, the Cl in data set [5] (iv, 150 mg/kg) amounted to 48.7 mL/min/kg. The “MRT0-last, BALF” value in data set [5] (iv, 150 mg/kg) was found to be 103 min. For the same compound, the “MRT0-last, plasma” value in data set [5] (iv, 150 mg/kg) was determined as 26.3 min. In data set [5] (iv, 150 mg/kg), the “T1/2, BALF” value was 45.7 min. The “T1/2, plasma” value in data set [5] (iv, 150 mg/kg) was 73.8 min.
